Reference: patent US8198268B2, “Tianeptine sulfate salt forms and methods of making and using the same” (Janssen Biotech, Inc., priority 2008, dated 2012)

Tested on: mouse
Experiment: Behavioral despair test in mouse (forced swim test), IP administration
[1] = STUDY A, 150 mg/kg i.p. 30 min prior to testing, 150 mg/kg
[2] = STUDY A, 150 mg/kg i.p. 30 min prior to testing, hemisulfate monohydrate, 150 mg/kg

CN(C)CCCN1c2ccccc2CCc2ccccc21 [Imipramine, reference compound]
Duration of Immobility mean ± s.e.m. (STUDY A, 32 mg/kg i.p. 30 min prior to testing): 64.1 ± 16.1 s | Duration of Immobility % change from control (STUDY A, 32 mg/kg i.p. 30 min prior to testing, 32 mg/kg): −68% | Duration of Immobility % change from control (STUDY A, 32 mg/kg i.p. 30 min prior to testing, listed as imipramine hydrochloride, 32 mg/kg): −68% | Duration of Immobility % change from control (STUDY B, 32 mg/kg i.p. 30 min prior to testing, 32 mg/kg): −88% | Duration of Immobility % change from control (STUDY B, 32 mg/kg i.p. 30 min prior to testing, listed as imipramine hydrochloride, 32 mg/kg): −88%

CN1c2ccccc2C(NCCCCCCC(=O)O)c2ccc(Cl)cc2S1(=O)=O (stereo not shown) [tianeptine sodium, reference compound]
Duration of Immobility % change from control [1]: −50% | Duration of Immobility mean ± s.e.m. [1]: 102.0 ± 13.0 s

CN1c2ccccc2C(NCCCCCCC(=O)O)c2ccc(Cl)cc2S1(=O)=O (stereo not shown) [tianeptine hemisulfate monohydrate, 7-[(3-chloro-6,11-dihydro-6-methyldibenzo[c,f][1,2]thiazepin-11-yl)amino]heptanoic acid S,S-dioxide hemisulfate monohydrate]
Duration of Immobility mean ± s.e.m. (STUDY A, 100 mg/kg i.p. 30 min prior to testing): 83.1 ± 21.2 s | Duration of Immobility % change from control (STUDY A, 100 mg/kg i.p. 30 min prior to testing, hemisulfate monohydrate, 100 mg/kg): −59% | Duration of Immobility % change from control [2]: −43% | Duration of Immobility mean ± s.e.m. [2]: 115.5 ± 13.6 s | Duration of Immobility mean ± s.e.m. (STUDY A, 200 mg/kg i.p. 30 min prior to testing): 108.8 ± 19.8 s | Duration of Immobility % change from control (STUDY A, 200 mg/kg i.p. 30 min prior to testing, hemisulfate monohydrate, 200 mg/kg): −46% | abnormal behavior prior to the test (STUDY B, 30 mg/kg and 60 mg/kg i.p.): abnormal behavior (including Straub tail and circling) was observed in all ten mice | Duration of Immobility mean ± s.e.m. (STUDY B, 30 mg/kg i.p. 30 min prior to testing): 25.8 ± 8.7 s | Duration of Immobility % change from control (STUDY B, 30 mg/kg i.p. 30 min prior to testing, hemisulfate monohydrate, 30 mg/kg): −86% | Duration of Immobility mean ± s.e.m. (STUDY B, 60 mg/kg i.p. 30 min prior to testing): 29.7 ± 9.7 s | Duration of Immobility % change from control (STUDY B, 60 mg/kg i.p. 30 min prior to testing, hemisulfate monohydrate, 60 mg/kg): −83% | conclusion of STUDIES A and B (dose-range 30 mg/kg-200 mg/kg i.p.): antidepressant-like activity
